The target in experiment [1] is T1, hVAChT Y60A (Homo sapiens, UniProt Q16572, Y60A).
T1 sequence (Q16572 1-532 Y60A): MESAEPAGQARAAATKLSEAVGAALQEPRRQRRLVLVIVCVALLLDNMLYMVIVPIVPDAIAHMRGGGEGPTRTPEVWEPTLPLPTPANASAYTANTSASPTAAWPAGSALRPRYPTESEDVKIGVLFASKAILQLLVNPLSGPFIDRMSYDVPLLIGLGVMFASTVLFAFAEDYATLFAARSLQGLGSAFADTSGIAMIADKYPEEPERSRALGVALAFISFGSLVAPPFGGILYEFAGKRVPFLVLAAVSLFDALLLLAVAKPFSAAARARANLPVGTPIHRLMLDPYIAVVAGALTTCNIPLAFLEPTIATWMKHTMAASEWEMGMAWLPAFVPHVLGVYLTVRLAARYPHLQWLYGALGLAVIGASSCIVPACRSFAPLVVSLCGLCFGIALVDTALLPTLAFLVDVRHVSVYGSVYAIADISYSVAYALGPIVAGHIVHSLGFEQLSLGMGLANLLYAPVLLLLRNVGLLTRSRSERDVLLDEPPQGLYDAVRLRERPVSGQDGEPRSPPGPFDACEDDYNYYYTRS
Briefly: ACh equilibrium binding by competition against [3H]vesamicol.

Experiment [2] addresses T2, hVAChT W315A (Homo sapiens, UniProt Q16572, W315A).
T2 sequence (Q16572 1-532 W315A): T1 sequence (Q16572 1-532 Y60A) with A60Y, W315A
The experiment is described as above.

Experiment [3] addresses T2, hVAChT W315A. As to the kind of experiment: [3H]ACh transport. The format is biochemical.
In experiment [4] the target is T3, hVAChT W325H (Homo sapiens, UniProt Q16572, W325H).
T3 sequence (Q16572 1-532 W325H): T1 sequence (Q16572 1-532 Y60A) with A60Y, W325H
Briefly: [3H]ACh transport. The format is biochemical.

Experiment [5] deals with T1, hVAChT Y60A. As to the kind of experiment: [3H]ACh transport. The format is biochemical.
Experiment [6] concerns the target T4, hVAChT M316A (Homo sapiens, UniProt Q16572, M316A).
T4 sequence (Q16572 1-532 M316A): T1 sequence (Q16572 1-532 Y60A) with A60Y, M316A
Briefly: [3H]ACh transport. Type of experiment: biochemical.

Experiment [7] has as its target T5, hVAChT W331A (Homo sapiens, UniProt Q16572, W331A).
T5 sequence (Q16572 1-532 W331A): T1 sequence (Q16572 1-532 Y60A) with A60Y, W331A
As to the kind of experiment: [3H]vesamicol saturation binding. As to conditions: pH 7.4.

[8] abbreviates: read-out: KM, Michaelis-Menten constant for ACh transport, pH 7.4.

The structures appear in SMILES notation. Changes are numbered by the printed parent chain.

Regarding `CC(=O)OCC[N+](C)(C)C` [ACh, acetylcholine], the values for the Kd in experiment [1] and in experiment [2] were 8.2 ± 0.7 mM and 11 ± 4 mM, respectively. Further, the “FHA, fraction of the ACh sites that have high affinity” value in experiment [1] (Y60A hVAChT, pH 7.4) turned out to be 0.92 ± 0.02; in experiment [2] (W315A hVAChT, pH 7.4), 0.84 ± 0.16. Besides, the “Vmax/Bmax, ACh transport normalized to Bmax” value in experiment [3] (pH 7.4) was 5.2 ± 0.8 min⁻¹; in experiment [4] (pH 7.4), 6.5 ± 1.1 min⁻¹; in experiment [5] (pH 7.4), 4.7 ± 0.8 min⁻¹; in experiment [6] (pH 7.4) it was 8.2 ± 1.0 min⁻¹. Further, the Km in experiment [3] (setting [8]) came to 690 ± 220 µM; in experiment [4] (setting [8]) it was 480 ± 170 µM; in experiment [5] (setting [8]), 480 ± 320 µM; in experiment [6] (setting [8]), 1500 ± 300 µM.

For the compound `O[C@@H]1CCCC[C@H]1N1CCC(c2ccccc2)CC1` (racemic) [vesamicol, ( )-trans-2-(4-phenylpiperidino)cyclohexanol], in experiment [7], the “Bmax, maximal specific [3H]vesamicol binding (VAChT expression level)” value came to 37 ± 2 pmol/mg.

Values taken from publication PMC2962730 (Journal of neurochemistry, 2010).
